# Assay results published in PMC12396409, “Screening and hit evaluation of a microbial metabolite library against the pathogenic Plasmodium falciparum and Toxoplasma gondii parasites” (International Journal for Parasitology: Drugs and Drug …, 2025).
# Read-outs that look alike come from different tables or passages of the source.
# What was measured:
# [1] = system: P. falciparum 3D7 parasites; experiment: P. falciparum growth inhibition assay, 1-cycle (72 h treatment), SYBR DNA staining (library screen at 2 μg/mL and dose-response); type: cell-based, Plasmodium falciparum; settings: for activity at 2 µg/mL: Plasmodium falciparum, 3D7
# [2] = system: P. falciparum 3D7 parasites; experiment: P. falciparum growth inhibition assay, 2-cycle (120 h treatment), delayed-death screen and dose-response; type: cell-based, Plasmodium falciparum; settings: for activity at 2 µg/mL: Plasmodium falciparum, 3D7
# [3] = system: T. gondii RH strain (RH-Tub-eYFP) tachyzoites; experiment: microbe, parasite or virus in culture; type: cell-based, Toxoplasma gondii; settings: 72 h, 72 h; for percent parasite growth at 2 µg/mL: Toxoplasma gondii
# [4] = P. falciparum, 72 h, screen at 2 μg/mL, replicate 1
# [5] = P. falciparum, 72 h, screen at 2 μg/mL, replicate 2
# [6] = P. falciparum, 120 h, screen at 2 μg/mL, replicate 1
# [7] = P. falciparum, 120 h, screen at 2 μg/mL, replicate 2
# [8] = T. gondii, screen at 2 μg/mL, replicate 1
# [9] = T. gondii, screen at 2 μg/mL, replicate 2
# [10] = library screen at 2 μg/mL, 72 h, % growth, replicate 1
# [11] = library screen at 2 μg/mL, 72 h, % growth, replicate 2
# [12] = library screen at 2 μg/mL, 120 h, % growth, replicate 1
# [13] = library screen at 2 μg/mL, 120 h, % growth, replicate 2
# [14] = library screen at 2 μg/mL, % growth, replicate 1
# [15] = library screen at 2 μg/mL, % growth, replicate 2
structure (smiles),measurement,setting,value
CC/C=C\[C@H](O)[C@H](O)C1=C(C)C(=O)[C@]2(O1)C(=O)N[C@@](OC)(C(=O)c1ccccc1)[C@@H]2O [Pseurotin A],activity at 2 µg/mL,"[1]; P. falciparum, 72 h, parasite screen 2 μg/mL, % growth, replicate 1, read-out: Pf_72h_%Growth_Rep1",85.8%
same,activity at 2 µg/mL,"[1]; P. falciparum, 72 h, parasite screen 2 μg/mL, % growth, replicate 2, read-out: Pf_72h_%Growth_Rep2",95.5%
same,activity at 2 µg/mL,"[2]; P. falciparum, 120 h, parasite screen 2 μg/mL, % growth, replicate 1, read-out: Pf_120h_%Growth_Rep1",79.7%
same,activity at 2 µg/mL,"[2]; P. falciparum, 120 h, parasite screen 2 μg/mL, % growth, replicate 2, read-out: Pf_120h_%Growth_Rep2",139%
same,percent parasite growth at 2 µg/mL,"[3]; T. gondii, parasite screen 2 μg/mL, % growth, replicate 1, read-out: Tg_72h_%Growth_Rep1",122%
same,percent parasite growth at 2 µg/mL,"[3]; T. gondii, parasite screen 2 μg/mL, % growth, replicate 2, read-out: Tg_72h_%Growth_Rep2",81%
CC(=O)O[C@H]1CC[C@]2(C)[C@H]3CC[C@]4(C)Oc5cc(C)oc(=O)c5C[C@H]4[C@]3(C)CC[C@H]2C1(C)C [Chevalone B],1) Growth (%) at 72 h,"[1]; P. falciparum, 2 μg/mL, 72 h",25.41%
same,Mean,"[1]; P. falciparum, 72 h, 2 μg/mL, mean of both replicates, growth (% of control)",25.41
same,Pf_72h_%Growth_Rep1,[1]; [4],12.18%
same,Pf_72h_%Growth_Rep2,[1]; [5],38.64%
same,2) Growth (%) at 120 h,"[2]; P. falciparum, 2 μg/mL, 120 h",17.52%
same,Pf_120h_%Growth_Rep1,[2]; [6],13.73%
same,Pf_120h_%Growth_Rep2,[2]; [7],21.31%
same,3) Fold change (72 h/120 h),"[2]; P. falciparum, growth at 72 h / growth at 120 h, 2 μg/mL",1.5
same,Tg_72h_%Growth_Rep1,[3]; [8],78.55%
same,Tg_72h_%Growth_Rep2,[3]; [9],94.84%
CC[C@H]1CCC[C@H](O[C@H]2CC[C@H](N(C)C)[C@@H](C)O2)[C@@H](C)C(=O)C2=C[C@@H]3[C@@H](C=C(C)[C@@H]4C[C@@H](O[C@@H]5O[C@@H](C)[C@H](OC)[C@@H](OC)[C@H]5OC)C[C@@H]34)[C@@H]2CC(=O)O1 [Spinosyn D],IC50,"[1]; 3D7, 72 h treatment, mean ± S.D., n ≥ 3, read-out: IC50 (μM), P. falciparum",> 1 µM
same,Pf_72h_%Growth_Rep1,"[1]; P. falciparum, 72 h, parasite screen 2 μg/mL, % growth, replicate 1",88.37%
same,Pf_72h_%Growth_Rep2,"[1]; P. falciparum, 72 h, parasite screen 2 μg/mL, % growth, replicate 2",73.59%
same,Screen (P. falciparum),"[1]; library screen at 2 μg/mL, 3D7, 72 h, DD from the 120 h timepoint",I
same,Pf_120h_%Growth_Rep1,"[2]; P. falciparum, 120 h, parasite screen 2 μg/mL, % growth, replicate 1",102.44%
same,Pf_120h_%Growth_Rep2,"[2]; P. falciparum, 120 h, parasite screen 2 μg/mL, % growth, replicate 2",14.31%
same,Tg_72h_%Growth_Rep1,"[3]; T. gondii, parasite screen 2 μg/mL, % growth, replicate 1",127.19%
same,Tg_72h_%Growth_Rep2,"[3]; T. gondii, parasite screen 2 μg/mL, % growth, replicate 2",79.47%
CCC(=O)Nc1c2sscc-2n(C)c1=O [Aureothricin],Pf_72h_%Growth_Rep1,[1]; [10],7.64%
same,Pf_72h_%Growth_Rep2,[1]; [11],5.69%
same,Pf_120h_%Growth_Rep1,[2]; [12],11.34%
same,Pf_120h_%Growth_Rep2,[2]; [13],-0.06%
same,Tg_72h_%Growth_Rep1,[3]; [14],1.55%
same,Tg_72h_%Growth_Rep2,[3]; [15],1.43%
COc1ccc2c3c4n(c2c1)[C@H](C=C(C)C)OOC(C)(C)C[C@@H]4N1C(=O)[C@@H]2CCCN2C(=O)[C@]1(O)[C@H]3O [Verruculogen],activity at 2 µg/mL,"[1]; P. falciparum, 72 h, screen at 2 μg/mL, replicate 1, read-out: Pf_72h_%Growth_Rep1",58.1%
same,activity at 2 µg/mL,"[1]; P. falciparum, 72 h, screen at 2 μg/mL, replicate 2, read-out: Pf_72h_%Growth_Rep2",88.5%
same,activity at 2 µg/mL,"[2]; P. falciparum, 120 h, screen at 2 μg/mL, replicate 1, read-out: Pf_120h_%Growth_Rep1",144%
same,activity at 2 µg/mL,"[2]; P. falciparum, 120 h, screen at 2 μg/mL, replicate 2, read-out: Pf_120h_%Growth_Rep2",80.6%
same,percent parasite growth at 2 µg/mL,"[3]; T. gondii, screen at 2 μg/mL, replicate 1, read-out: Tg_72h_%Growth_Rep1",92.4%
same,percent parasite growth at 2 µg/mL,"[3]; T. gondii, screen at 2 μg/mL, replicate 2, read-out: Tg_72h_%Growth_Rep2",102%
C=C(NC(=O)C(=C)NC(=O)c1ccc2c(n1)-c1coc(n1)C(=C)NC(=O)C(=C)NC(=O)c1nc(oc1C)C(=C)NC(=O)C(C(C)(C)O)NC(=O)C(=C)NC(=O)c1coc(n1)/C(=C/C)NC(=O)[C@H]([C@@H](C)O)NC(=O)c1csc-2n1)C(N)=O (stereo partly drawn) [Geninthiocin],Pf_72h_%Growth_Rep1,[1]; [10],87.80%
same,Pf_72h_%Growth_Rep2,[1]; [11],33.98%
same,Pf_120h_%Growth_Rep1,[2]; [12],87.82%
same,Pf_120h_%Growth_Rep2,[2]; [13],106.01%
same,Tg_72h_%Growth_Rep1,[3]; [14],124.28%
same,Tg_72h_%Growth_Rep2,[3]; [15],90.80%
CC[C@H](C)[C@H]1O[C@]2(C=C[C@@H]1C)C[C@@H]1C[C@@H](C/C=C(\C)[C@@H](O[C@H]3C[C@H](OC)[C@@H](O)[C@H](C)O3)[C@@H](C)/C=C/C=C3\CO[C@@H]4[C@H](O)C(C)=C[C@@H](C(=O)O1)[C@]34O)O2 [Avermectin B1a monosaccharide],Pf_72h_%Growth_Rep1,[1]; [10],47.44%
same,Pf_72h_%Growth_Rep2,[1]; [11],32.72%
same,Pf_120h_%Growth_Rep1,[2]; [12],24.77%
same,Pf_120h_%Growth_Rep2,[2]; [13],20.49%
same,Tg_72h_%Growth_Rep1,[3]; [14],153.46%
same,Tg_72h_%Growth_Rep2,[3]; [15],93.98%
O=C1N[C@@H](Cc2ccccc2)C(=O)N[C@H]1Cc1ccccc1 [Cyclo(L-Phe-L-Phe)],Pf_72h_%Growth_Rep1,[1]; [4],87.79%
same,Pf_72h_%Growth_Rep2,[1]; [5],85.43%
same,Pf_120h_%Growth_Rep1,[2]; [6],99.78%
same,Pf_120h_%Growth_Rep2,[2]; [7],97.44%
same,Tg_72h_%Growth_Rep1,[3]; [8],128.27%
same,Tg_72h_%Growth_Rep2,[3]; [9],97.95%
O=C(O)c1c(=O)cccc2ssc12 [Tropodithietic acid],Pf_72h_%Growth_Rep1,[1]; [4],3.58%
same,Pf_72h_%Growth_Rep2,[1]; [5],-3.15%
same,Pf_120h_%Growth_Rep1,[2]; [6],21.29%
same,Pf_120h_%Growth_Rep2,[2]; [7],16.13%
same,Tg_72h_%Growth_Rep1,[3]; [8],1.16%
same,Tg_72h_%Growth_Rep2,[3]; [9],1.78%
